Measured values: ChEMBL document CHEMBL1255512, “Pyrazolo[1,5-a]pyrimidine acetamides: 4-Phenyl alkyl ether derivatives as potent ligands for the 18 kDa translocator protein (TSPO)” (Bioorg Med Chem Lett, 2010)
pKi: −log10 of the molar value.

Tests used:
[1] = biological target: Alpha-2A adrenergic receptor (Homo sapiens) (UniProt P08913); assay: Inhibition of alpha2A adrenergic receptor at 10 uM
[2] = biological target: Histamine H2 receptor (Homo sapiens) (UniProt P25021); assay: Inhibition of H2 receptor at 10 uM
[3] = biological target: 5-hydroxytryptamine receptor 2B (Homo sapiens, UniProt P41595); assay: Inhibition of 5-HT2B receptor
[4] = biological target: T1, Delta-type opioid receptor (Homo sapiens, UniProt P41143); assay: Inhibition of delta opioid receptor
[5] = biological target: T2, Kappa-type opioid receptor (Homo sapiens, UniProt P41145); assay: Inhibition of kappa opioid receptor
[6] = biological target: Alpha-1B adrenergic receptor (Homo sapiens, UniProt P35368); assay: Inhibition of Alpha-1B adrenergic receptor
[7] = biological target: 5-hydroxytryptamine receptor 3A (Homo sapiens) (UniProt P46098); assay: Inhibition of 5-HT3 receptor at 10 uM
[8] = biological target: T1, Delta-type opioid receptor; assay: Inhibition of delta opioid receptor at 10 uM
[9] = biological target: T2, Kappa-type opioid receptor; assay: Inhibition of kappa opioid receptor at 10 uM

T1 sequence (P41143 whole entry): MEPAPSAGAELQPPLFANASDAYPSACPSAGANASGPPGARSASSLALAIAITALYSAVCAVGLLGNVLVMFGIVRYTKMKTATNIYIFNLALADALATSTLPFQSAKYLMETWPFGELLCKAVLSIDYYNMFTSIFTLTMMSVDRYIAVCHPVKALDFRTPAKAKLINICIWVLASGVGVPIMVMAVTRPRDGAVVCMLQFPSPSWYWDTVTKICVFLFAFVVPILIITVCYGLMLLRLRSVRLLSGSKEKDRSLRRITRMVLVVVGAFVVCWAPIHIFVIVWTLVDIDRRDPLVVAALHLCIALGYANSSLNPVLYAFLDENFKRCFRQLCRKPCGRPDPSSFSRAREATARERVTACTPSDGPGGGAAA
T2 sequence (P41145 whole entry): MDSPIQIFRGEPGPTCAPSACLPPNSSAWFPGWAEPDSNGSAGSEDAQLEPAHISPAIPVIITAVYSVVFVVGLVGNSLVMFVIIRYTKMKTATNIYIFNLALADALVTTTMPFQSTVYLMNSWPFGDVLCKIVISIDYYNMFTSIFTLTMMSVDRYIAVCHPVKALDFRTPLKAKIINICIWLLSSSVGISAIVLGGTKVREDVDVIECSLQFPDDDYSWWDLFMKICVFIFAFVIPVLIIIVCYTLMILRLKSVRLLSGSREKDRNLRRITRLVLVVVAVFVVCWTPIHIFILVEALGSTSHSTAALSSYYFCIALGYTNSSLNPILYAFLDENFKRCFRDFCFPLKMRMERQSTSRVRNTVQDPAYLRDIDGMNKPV
Chain of Histamine H2 receptor (Homo sapiens) (P25021 whole entry): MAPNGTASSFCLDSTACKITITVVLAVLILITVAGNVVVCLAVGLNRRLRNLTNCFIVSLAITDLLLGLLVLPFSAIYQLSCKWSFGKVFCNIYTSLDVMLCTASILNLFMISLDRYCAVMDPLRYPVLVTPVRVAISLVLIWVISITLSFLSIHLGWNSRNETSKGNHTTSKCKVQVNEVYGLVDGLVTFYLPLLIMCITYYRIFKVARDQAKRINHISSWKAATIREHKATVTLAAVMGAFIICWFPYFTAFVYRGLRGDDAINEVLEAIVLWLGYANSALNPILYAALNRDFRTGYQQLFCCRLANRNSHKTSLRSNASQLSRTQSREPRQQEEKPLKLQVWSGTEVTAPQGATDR
Chain of Alpha-2A adrenergic receptor (Homo sapiens) (P08913 whole entry): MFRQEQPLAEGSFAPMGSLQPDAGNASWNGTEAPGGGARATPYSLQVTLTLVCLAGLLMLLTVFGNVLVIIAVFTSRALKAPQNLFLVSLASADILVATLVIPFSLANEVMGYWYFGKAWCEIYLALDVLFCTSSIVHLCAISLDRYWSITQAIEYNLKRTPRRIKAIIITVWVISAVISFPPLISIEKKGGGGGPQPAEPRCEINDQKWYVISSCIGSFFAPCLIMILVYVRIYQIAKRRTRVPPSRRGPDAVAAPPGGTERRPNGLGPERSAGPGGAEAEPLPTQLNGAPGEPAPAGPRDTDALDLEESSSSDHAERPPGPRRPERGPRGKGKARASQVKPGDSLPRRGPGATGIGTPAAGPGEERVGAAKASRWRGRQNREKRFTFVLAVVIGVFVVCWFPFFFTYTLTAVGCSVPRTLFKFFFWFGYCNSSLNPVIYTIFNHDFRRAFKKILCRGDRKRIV
Chain of 5-hydroxytryptamine receptor 3A (Homo sapiens) (P46098 whole entry): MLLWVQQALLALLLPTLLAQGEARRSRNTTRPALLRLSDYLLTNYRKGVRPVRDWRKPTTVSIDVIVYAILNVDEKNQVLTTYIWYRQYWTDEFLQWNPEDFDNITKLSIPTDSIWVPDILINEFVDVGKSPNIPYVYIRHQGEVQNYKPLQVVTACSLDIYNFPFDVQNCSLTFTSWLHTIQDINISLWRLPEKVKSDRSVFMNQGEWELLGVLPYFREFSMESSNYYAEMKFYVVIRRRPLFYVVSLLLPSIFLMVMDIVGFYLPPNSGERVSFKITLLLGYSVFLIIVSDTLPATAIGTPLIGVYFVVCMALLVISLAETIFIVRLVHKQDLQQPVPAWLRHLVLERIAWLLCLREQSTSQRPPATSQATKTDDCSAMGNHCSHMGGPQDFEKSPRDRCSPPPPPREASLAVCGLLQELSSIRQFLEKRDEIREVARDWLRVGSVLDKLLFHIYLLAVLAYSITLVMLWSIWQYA
Chain of Alpha-1B adrenergic receptor (P35368 whole entry): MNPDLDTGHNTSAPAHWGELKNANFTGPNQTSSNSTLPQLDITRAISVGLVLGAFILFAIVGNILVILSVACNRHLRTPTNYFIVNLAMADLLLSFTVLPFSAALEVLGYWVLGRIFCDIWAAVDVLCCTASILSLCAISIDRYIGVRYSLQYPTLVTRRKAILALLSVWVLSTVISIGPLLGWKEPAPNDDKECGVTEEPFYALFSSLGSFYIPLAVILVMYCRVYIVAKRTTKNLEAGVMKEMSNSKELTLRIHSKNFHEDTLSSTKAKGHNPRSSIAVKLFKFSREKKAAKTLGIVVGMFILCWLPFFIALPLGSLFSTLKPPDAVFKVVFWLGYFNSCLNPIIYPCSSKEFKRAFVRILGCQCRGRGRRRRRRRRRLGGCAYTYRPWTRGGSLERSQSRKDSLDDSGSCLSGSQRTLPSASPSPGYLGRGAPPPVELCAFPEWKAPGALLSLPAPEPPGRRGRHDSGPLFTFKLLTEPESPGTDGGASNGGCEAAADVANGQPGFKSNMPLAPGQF
Chain of 5-hydroxytryptamine receptor 2B (P41595 whole entry): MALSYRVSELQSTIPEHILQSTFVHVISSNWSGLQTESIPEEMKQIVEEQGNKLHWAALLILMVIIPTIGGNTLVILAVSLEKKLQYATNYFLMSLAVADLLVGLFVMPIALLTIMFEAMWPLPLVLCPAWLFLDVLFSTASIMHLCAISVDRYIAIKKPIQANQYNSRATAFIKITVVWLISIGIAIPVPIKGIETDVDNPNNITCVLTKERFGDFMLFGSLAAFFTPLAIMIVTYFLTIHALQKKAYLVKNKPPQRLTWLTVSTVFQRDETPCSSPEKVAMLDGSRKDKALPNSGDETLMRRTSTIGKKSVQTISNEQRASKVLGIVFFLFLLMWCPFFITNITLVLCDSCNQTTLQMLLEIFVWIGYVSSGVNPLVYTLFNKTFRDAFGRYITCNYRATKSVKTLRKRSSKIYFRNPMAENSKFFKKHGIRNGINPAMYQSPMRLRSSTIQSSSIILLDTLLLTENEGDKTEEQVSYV

Row | inhibition [1] [%] | inhibition [2] [%] | pKi [3] | pKi [4] | pKi [5] | pKi [6] | inhibition [7] [%] | inhibition [8] [%] | inhibition [9] [%] | Structure (SMILES)
1 | < 50 | < 50 | 5.08 | < 5.00 | < 5.00 |  |  |  |  | CCCCOc1ccc(-c2nn3c(C)cc(C)nc3c2CC(=O)N(CC)CC)cc1
2 |  | < 50 |  | < 5.00 | < 5.00 | < 5.00 |  |  |  | CCCOc1ccc(-c2nn3c(C)cc(C)nc3c2CC(=O)N(CC)CC)cc1
3 |  | < 50 |  |  |  |  | < 50 | < 50 | < 50 | CCOc1ccc(-c2nn3c(C)cc(C)nc3c2CC(=O)N(CC)CC)cc1
4 | < 50 | < 50 |  |  |  |  | < 50 | < 50 | < 50 | C#CCOc1ccc(-c2nn3c(C)cc(C)nc3c2CC(=O)N(CC)CC)cc1
